Molecular target: Retrograde regulation protein 3 (Saccharomyces cerevisiae (strain ATCC 204508 / S288c)) (UniProt P38165)
Assay: nuclear shift of GFP-tagged Rtg3 – imaging, fluorescence microscopy, S288c, yeast TOR pathway modulator project, SAR follow-up (AID 504471)
Conditions: S. cerevisiae Rtg3-GFP, nuclear translocation by microscopy; at 30 µM; hits give high values;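 active = compounds that moved the Rtg3-GFP signal into yeast nuclei under the microscope; inactive = the rest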

Nuclear translocation (1=yes, 0=no), active:
CNc1nc(N)c([N+](=O)[O-])c(Nc2ccccc2)n1 1
CNc1nc(N)c([N+](=O)[O-])c(Nc2cccc(F)c2)n1 1
CO[C@H]1C[C@@H]2CC[C@@H](C)[C@@](O)(O2)C(=O)C(=O)N2CCCC[C@H]2C(=O)O[C@H]([C@H](C)C[C@@H]2CC[C@@H](O)[C@H](OC)C2)CC(=O)[C@H](C)/C=C(\C)[C@@H](O)[C@@H](OC)C(=O)[C@H](C)C[C@H](C)/C=C/C=C/C=C/1C 1
CNc1nc(N)c([N+](=O)[O-])c(Nc2cccc(Cl)c2)n1 1

— PubChem BioAssay AID504471 (NMMLSC, 2011)
